Results published in patent publication US20060069132A1, “Azolecarboxamide herbicides” (priority 2004, published 2006).

What was measured:
barnyardgrass [1] = assay: Test A pre-/postemergence herbicide test; format: in vivo, Echinochloa crus-galli
Procedure, shortened: (§1)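 Sandy loam soil given preemergence directed spray; plants at 2 to 10 cm, one- to two-leaf stage, sprayed to runoff postemergence, compounds in non-phytotoxic solvent with surfactant. Injury rated visually versus untreated controls after about ten greenhouse days, 0 (no effect) to 100 (complete control); dash means not tested.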

large crabgrass [2] = assay: Test A pre-/postemergence herbicide test; format: in vivo, Digitaria sanguinalis
Procedure, shortened: as §1

giant foxtail [3] = assay: Test A pre-/postemergence herbicide test; format: in vivo, Setaria faberi
Procedure, shortened: as §1

morningglory [4] = assay: Test A pre-/postemergence herbicide test; format: in vivo, Ipomoea spp.
Procedure, shortened: as §1

redroot pigweed = assay: Test A pre-/postemergence herbicide test; format: in vivo, Amaranthus retroflexus
Procedure, shortened: as §1

velvetleaf [5] = assay: Test A pre-/postemergence herbicide test; format: in vivo, Abutilon theophrasti
Procedure, shortened: as §1

barnyardgrass [6] = assay: Test B pre-/postemergence herbicide test; format: in vivo, Echinochloa crus-galli; details: for Barnyardgrass plant response rating: postemergence, scale 0 (no effect) to 100 (complete control)
Procedure, shortened: (§2)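 Test chemicals in a non-phytotoxic solvent mixture with surfactant were applied preemergence to seeded species and postemergence to plants 2-18 cm tall (1- to 4-leaf stage); rice and barnyardgrass were also tested in a flooded paddy at the 2-leaf stage. Visual rating versus controls after 13-15 days in greenhouse, scale 0 (no effect) to 100 (complete control).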

Surinam grass = assay: Test B pre-/postemergence herbicide test; format: in vivo, Urochloa decumbens; details: for Surinam Grass plant response rating: postemergence, scale 0 (no effect) to 100 (complete control)
Procedure, shortened: (§3)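 Formulation: non-phytotoxic solvent mix with surfactant. Timing: preemergence on seed and postemergence on 2–18 cm plants, applied concurrently. Readout after 13–15 d greenhouse: visual 0–100 control rating against controls.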

cocklebur = assay: Test B pre-/postemergence herbicide test; format: in vivo, Xanthium strumarium; details: for Cocklebur plant response rating: postemergence, scale 0 (no effect) to 100 (complete control)
Procedure, shortened: as §2

corn = assay: Test B pre-/postemergence herbicide test; format: in vivo, Zea mays; details: for Corn plant response rating: postemergence, scale 0 (no effect) to 100 (complete control)
Procedure, shortened: as §3

large crabgrass [7] = assay: Test B pre-/postemergence herbicide test; format: in vivo, Digitaria sanguinalis; details: for Crabgrass, Large plant response rating: postemergence, scale 0 (no effect) to 100 (complete control)
Procedure, shortened: as §3

giant foxtail [8] = assay: Test B pre-/postemergence herbicide test; format: in vivo, Setaria faberi; details: for Foxtail, Giant plant response rating: postemergence, scale 0 (no effect) to 100 (complete control)
Procedure, shortened: as §3

lambsquarters = assay: Test B pre-/postemergence herbicide test; format: in vivo, Chenopodium album; details: for Lambsquarters plant response rating: postemergence, scale 0 (no effect) to 100 (complete control)
Procedure, shortened: as §3

morningglory [9] = assay: Test B pre-/postemergence herbicide test; format: in vivo, Ipomoea coccinea; details: for Morningglory plant response rating: postemergence, scale 0 (no effect) to 100 (complete control)
Procedure, shortened: as §2

pigweed = assay: Test B pre-/postemergence herbicide test; format: in vivo, Amaranthus retroflexus; details: for Pigweed plant response rating: postemergence, scale 0 (no effect) to 100 (complete control)
Procedure, shortened: as §3

rice [10] = assay: Test B pre-/postemergence herbicide test; format: in vivo, Oryza sativa; details: 0 = no effect, 100 = complete control, preemergence
Procedure, shortened: as §3

velvetleaf [11] = assay: Test B pre-/postemergence herbicide test; format: in vivo, Abutilon theophrasti; details: for Velvetleaf plant response rating: postemergence, scale 0 (no effect) to 100 (complete control)
Procedure, shortened: as §3

blackgrass = assay: Test B postemergence herbicide test; format: in vivo, Alopecurus myosuroides; details: postemergence, visual rating, scale 0 (no effect) to 100 (complete control)
Procedure, shortened: (§4)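 Paddy species grown to the 2-leaf stage under flooding; blackgrass sprayed postemergence at 2–18 cm (1- to 4-leaf stage). Plants kept in a greenhouse for 13 to 15 days, then visually rated against controls on 0 (no effect) to 100 (complete control).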

wheat = assay: Test B postemergence herbicide test; format: in vivo, Triticum aestivum; set-up: key to Wheat plant response rating: 0 = no effect, 100 = complete control; details: postemergence, visual rating, scale 0 (no effect) to 100 (complete control)
Procedure, shortened: (§5)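 Greenhouse test; postemergence application to plants at 1–4 leaves (2–18 cm); paddy species at 2 leaves; evaluated visually vs controls at 13–15 days; scale 0–100 (100 = complete control).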

wild oat = assay: Test B postemergence herbicide test; format: in vivo, Avena fatua; details: postemergence, visual rating, scale 0 (no effect) to 100 (complete control)
Procedure, shortened: as §5

rice [12] = assay: Test B flooded paddy test; format: in vivo, Oryza sativa; details: 1000 g ai/ha, visual rating, scale 0 to 100 (0 no effect, 100 complete control), 13 to 15 days
Procedure, shortened: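 Scale 0–100: zero equals no visible effect, 100 complete control, judged by eye relative to controls. Timing: 13 to 15 days in greenhouse post-treatment. Growth stage at spraying: two leaves (paddy) or one to four leaves, 2–18 cm (postemergence).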

[13] = system: small flower umbrella sedge; assay: Test B flooded paddy test; format: in vivo, Cyperus difformis; details: 1000 g ai/ha, visual rating, scale 0 to 100 (0 no effect, 100 complete control), 13 to 15 days
Procedure, shortened: as §4

ducksalad = assay: Test B flooded paddy test; format: in vivo, Heteranthera limosa; details: 1000 g ai/ha, visual rating, scale 0 to 100 (0 no effect, 100 complete control), 13 to 15 days
Procedure, shortened: as §4

barnyardgrass [14] = assay: Test B flooded paddy test; format: in vivo, Echinochloa crus-galli; details: 1000 g ai/ha, visual rating, scale 0 to 100 (0 no effect, 100 complete control), 13 to 15 days
Procedure, shortened: as §4

[15] = Postemergence, 500 g ai/ha, 0 to 100 scale, 0 no effect, 100 complete control
[16] = Postemergence, 2000 g ai/ha, 0 to 100 scale, 0 no effect, 100 complete control
[17] = Preemergence, 2000 g ai/ha, visual rating, 0 to 100 scale (0 no effect, 100 complete control)
[18] = preemergence, 500 g ai/ha, visual injury, 0 to 100 scale (0 no effect, 100 complete control)
[19] = 125 g ai/ha, 0 = no effect, 100 = complete control, preemergence
[20] = 500 g ai/ha, visual rating, 0 = no effect, 100 = complete control, preemergence

C#CCNC(=O)c1cccc(NC(=O)c2sc(C(C)(C)C)nc2CC)n1 [Compound 217] was tested, and the “Barnyardgrass plant response rating” value (barnyardgrass [1]; [15]) was 0, the “Plant response rating, Barnyardgrass” value (barnyardgrass [1]; [16]) was 0 and the “Barnyardgrass plant response rating” value (barnyardgrass [1]; [17]) was 0. The “Barnyardgrass plant response rating” value (barnyardgrass [1]; [18]) was 0, the “Crabgrass, Large plant response rating” value (large crabgrass [2]; [15]) was 0 and the “Plant response rating, Crabgrass, Large” value (large crabgrass [2]; [16]) was 20. The “Crabgrass, Large plant response rating” value (large crabgrass [2]; [17]) was 10, the “Crabgrass, Large plant response rating” value (large crabgrass [2]; [18]) was 0 and the “Foxtail, Giant plant response rating” value (giant foxtail [3]; [15]) was 0. The “Plant response rating, Foxtail, Giant” value (giant foxtail [3]; [16]) was 0, the “Foxtail, Giant plant response rating” value (giant foxtail [3]; [17]) was 10 and the “Foxtail, Giant plant response rating” value (giant foxtail [3]; [18]) was 0. For the same compound, the “Morningglory plant response rating” value (morningglory [4]; [15]) was 15, the “Plant response rating, Morningglory” value (morningglory [4]; [16]) was 25 and the “Morningglory plant response rating” value (morningglory [4]; [17]) was 0. For the same compound, the “Morningglory plant response rating” value (morningglory [4]; [18]) was 0, the “Pigweed plant response rating” value (redroot pigweed; [15]) was 10 and the “Plant response rating, Pigweed” value (redroot pigweed; [16]) was 25. For the same compound, the “Pigweed plant response rating” value (redroot pigweed; [17]) was 40, the “Pigweed plant response rating” value (redroot pigweed; [18]) was 0 and the “Velvetleaf plant response rating” value (velvetleaf [5]; [15]) was 5. The “Plant response rating, Velvetleaf” value (velvetleaf [5]; [16]) was 30, the “Velvetleaf plant response rating” value (velvetleaf [5]; [17]) was 5 and the “Velvetleaf plant response rating” value (velvetleaf [5]; [18]) was 0. The “Barnyardgrass plant response rating (0 to 100 scale)” value (barnyardgrass [6]; [19]) was 0, the “Plant response rating, Barnyardgrass” value (barnyardgrass [6]; [20]) was 0 and the “Barnyardgrass plant response rating” value (barnyardgrass [6]; 125 g ai/ha, visual rating) was 0. For the same compound, the “Barnyardgrass plant response rating” value (barnyardgrass [6]; 500 g ai/ha, visual rating) was 0, the “Surinam Grass plant response rating (0 to 100 scale)” value (Surinam grass; [19]) was 0 and the “Plant response rating, Surinam Grass” value (Surinam grass; [20]) was 0. The “Surinam Grass plant response rating” value (Surinam grass; 125 g ai/ha, visual rating) was 0, the “Surinam Grass plant response rating” value (Surinam grass; 500 g ai/ha, visual rating) was 10 and the “Cocklebur plant response rating (0 to 100 scale)” value (cocklebur; [19]) was 0. The “Plant response rating, Cocklebur” value (cocklebur; [20]) was 0, the “Cocklebur plant response rating” value (cocklebur; 125 g ai/ha, visual rating) was 0 and the “Cocklebur plant response rating” value (cocklebur; 500 g ai/ha, visual rating) was 0. The “Corn plant response rating (0 to 100 scale)” value (corn; [19]) was 0, the “Plant response rating, Corn” value (corn; [20]) was 0 and the “Corn plant response rating” value (corn; 125 g ai/ha, visual rating) was 0. The “Corn plant response rating” value (corn; 500 g ai/ha, visual rating) was 0, the “Crabgrass, Large plant response rating (0 to 100 scale)” value (large crabgrass [7]; [19]) was 0 and the “Plant response rating, Crabgrass, Large” value (large crabgrass [7]; [20]) was 0. The “Crabgrass, Large plant response rating” value (large crabgrass [7]; 125 g ai/ha, visual rating) was 0, the “Crabgrass, Large plant response rating” value (large crabgrass [7]; 500 g ai/ha, visual rating) was 0 and the “Foxtail, Giant plant response rating (0 to 100 scale)” value (giant foxtail [8]; [19]) was 0. For the same compound, the “Plant response rating, Foxtail, Giant” value (giant foxtail [8]; [20]) was 0, the “Foxtail, Giant plant response rating” value (giant foxtail [8]; 125 g ai/ha, visual rating) was 0 and the “Foxtail, Giant plant response rating” value (giant foxtail [8]; 500 g ai/ha, visual rating) was 0. For the same compound, the “Lambsquarters plant response rating (0 to 100 scale)” value (lambsquarters; [19]) was 0, the “Plant response rating, Lambsquarters” value (lambsquarters; [20]) was 0 and the “Lambsquarters plant response rating” value (lambsquarters; 125 g ai/ha, visual rating) was 0. The “Lambsquarters plant response rating” value (lambsquarters; 500 g ai/ha, visual rating) was 0, the “Morningglory plant response rating (0 to 100 scale)” value (morningglory [9]; [19]) was 0 and the “Plant response rating, Morningglory” value (morningglory [9]; [20]) was 0. The “Morningglory plant response rating” value (morningglory [9]; 125 g ai/ha, visual rating) was 0, the “Morningglory plant response rating” value (morningglory [9]; 500 g ai/ha, visual rating) was 10 and the “Pigweed plant response rating (0 to 100 scale)” value (pigweed; [19]) was 0. For the same compound, the “Plant response rating, Pigweed” value (pigweed; [20]) was 0, the “Pigweed plant response rating” value (pigweed; 125 g ai/ha, visual rating) was 0 and the “Pigweed plant response rating” value (pigweed; 500 g ai/ha, visual rating) was 0. For the same compound, the “Rice plant response rating (0 to 100 scale)” value (rice [10]; 125 g ai/ha) was 0, the “Plant response rating, Rice” value (rice [10]; 500 g ai/ha, visual rating) was 0 and the “Velvetleaf plant response rating (0 to 100 scale)” value (velvetleaf [11]; [19]) was 0. The “Plant response rating, Velvetleaf” value (velvetleaf [11]; [20]) was 0, the “Velvetleaf plant response rating” value (velvetleaf [11]; 125 g ai/ha, visual rating) was 0 and the “Velvetleaf plant response rating” value (velvetleaf [11]; 500 g ai/ha, visual rating) was 10. The “Blackgrass plant response rating” value (blackgrass; 125 g ai/ha) was 0, the “Blackgrass plant response rating” value (blackgrass; 500 g ai/ha) was 0 and the “Wheat plant response rating” value (wheat; 125 g ai/ha) was 0. For the same compound, the “Wheat plant response rating” value (wheat; 500 g ai/ha) was 0, the “Oat, Wild plant response rating” value (wild oat; 125 g ai/ha) was 0 and the “Oat, Wild plant response rating” value (wild oat; 500 g ai/ha) was 0. For the same compound, the “Rice plant response rating” value (rice [12]) was 0, the “Sedge, Umbrella plant response rating” value [13] was 0 and the “Ducksalad plant response rating” value (ducksalad) was 0. The “Barnyardgrass plant response rating” value (barnyardgrass [14]) was 0.
